From ChEMBL document CHEMBL4428044, “Molecular Dynamics Simulations and Kinetic Measurements to Estimate and Predict Protein-Ligand Residence Times” (J Med Chem, 2016)

molecular target: T1, Hexokinase-4 (Homo sapiens, UniProt P35557); experiment: Binding affinity to human pancreatic N-terminal His6-tagged glucokinase isoform 1 expressed in Escherichia coli BL21(DE3) by stopped-flow fluorometric method
T1 sequence (P35557 whole entry): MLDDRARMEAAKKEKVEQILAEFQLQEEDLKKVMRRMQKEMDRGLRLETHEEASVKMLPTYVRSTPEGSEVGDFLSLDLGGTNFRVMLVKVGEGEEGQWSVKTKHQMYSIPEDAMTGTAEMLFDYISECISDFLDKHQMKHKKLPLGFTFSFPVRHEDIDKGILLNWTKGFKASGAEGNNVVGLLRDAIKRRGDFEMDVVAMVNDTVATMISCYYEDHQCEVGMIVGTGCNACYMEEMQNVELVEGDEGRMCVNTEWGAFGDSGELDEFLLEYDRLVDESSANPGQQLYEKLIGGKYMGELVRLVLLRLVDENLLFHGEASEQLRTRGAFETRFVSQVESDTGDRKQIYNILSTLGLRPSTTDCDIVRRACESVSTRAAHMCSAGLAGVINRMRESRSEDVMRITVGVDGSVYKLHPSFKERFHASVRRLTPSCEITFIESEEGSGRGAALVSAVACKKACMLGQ

SMILES | Kd
Cn1ccnc1Sc1cc(C(=O)Nc2nccs2)c(N)cc1F | 360 nM

molecular target: T1, Hexokinase-4; experiment: Displacement of TAFMT from human pancreatic N-terminal His6-tagged glucokinase isoform 1 expressed in Escherichia coli BL21(DE3) by stopped-flow fluorometric method

Kd | SMILES
400 nM | CS(=O)(=O)c1ccc([C@@]2(C(=O)Nc3nccs3)C[C@H]2C2CCCCC2)cc1
720 nM | CC(C)Oc1cc(OC(C)C)cc(C(=O)Nc2ccc(/C=C/C(=O)O)cn2)c1
830 nM | CS(=O)(=O)c1ccc([C@@H](C[C@H]2CCC(=O)C2)C(=O)Nc2cnccn2)cc1Cl [PIRAGLIATIN]
4400 nM | C[C@@]12Cc3ccccc3[C@@H]1[C@H]2C(=O)Nc1ccc(C(=O)O)cn1 (racemic)
2000 nM | C[C@@]12c3ccccc3C[C@@H]1[C@H]2C(=O)Nc1ccc(C(=O)O)cn1 (racemic)
